Data from ChEMBL document CHEMBL1142615, “Polyoxygenated dysidea sterols that inhibit the binding of [I125] IL-8 to the human recombinant IL-8 receptor type A” (J Nat Prod, 2000).
pIC50: −log10 of the molar value.

Biological target: T1, C-X-C chemokine receptor type 1 (Homo sapiens, UniProt P25024)
T1 sequence (P25024 whole entry): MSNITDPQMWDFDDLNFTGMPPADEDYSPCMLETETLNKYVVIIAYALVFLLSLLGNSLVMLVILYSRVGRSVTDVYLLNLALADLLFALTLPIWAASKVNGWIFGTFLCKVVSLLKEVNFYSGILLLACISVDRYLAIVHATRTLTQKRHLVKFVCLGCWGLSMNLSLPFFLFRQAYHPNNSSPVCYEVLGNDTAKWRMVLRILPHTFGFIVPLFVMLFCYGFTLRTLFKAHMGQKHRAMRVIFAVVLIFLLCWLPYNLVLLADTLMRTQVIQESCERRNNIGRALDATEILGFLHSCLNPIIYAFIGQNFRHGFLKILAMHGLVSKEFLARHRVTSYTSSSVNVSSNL
Assay: Displacement of [125I]IL8 from human recombinant IL8 type A receptor

| pIC50 | SMILES |
| --- | --- |
| 5.26 | CC(=O)O[C@H]1CC[C@]2(C)C3=C([C@H](OC(C)=O)[C@H](OC(C)=O)[C@@]2(O)C1)[C@@H]1CC[C@H]([C@H](C)CCCC(C)C)[C@@]1(C)C[C@H]3O |
| 5.35 | CC(=O)O[C@H]1C=C2[C@@H]3CC[C@H]([C@H](C)CCCC(C)C)[C@@]3(C)C[C@H]3O[C@@]23[C@@]2(C)CC[C@H](O)C[C@]12O |
| 4.70 | CC(=O)O[C@H]1C2=C([C@H](O)C[C@]3(C)[C@@H]([C@H](C)CCCC(C)C)CC[C@@H]23)[C@@]2(C)CC[C@H](O)C[C@]2(O)[C@H]1OC(C)=O |
